{"source": "patent US4848349A", "about": "“Substance and method for measuring hepatic blood flow” (priority 1987, dated 1989)", "assay_type_in_all_cases": "in vivo", "key": {"[1]": {"test": "Liver blood flow measurement by plasma elimination of injected FITC-GC", "conditions": "9 kg dog", "procedure": "The use of FITC bile acid for measuring liver blood flow has been tested in a dog. The following experimental protocol was followed.\n15 μmoles of FITC-labelled glycocholic bile acid (FITC-GC) in 2 ml normal saline were injected into a 9 kg dog. Serial blood samples were taken into heparinized containers at 2, 4, 6, 8, and 10 minutes following the initial injection. The samples were then centrifuged for 5 minutes and the plasma collected. The concentration of FITC-GC in each plasma sample was measured with a PERKIN-ELMERS* spectrophlourimeter, using a previously determined calibration curve for FITC-GC solutions in plasma.\nTherefore plasma clearance was calculated as [formula] M-amount of material injected and k=const. (k=1 for 100% extraction, 0.9 for 90% extraction), thus [formula] where [formula] is the slope of the line for concentration vs. time plot on a semi-log paper, and Co is the initial concentration (log Co is determined as an intercept of the plot with the concentration axis). For the purpose of calculating plasma clearance, k was assumed to equal 0.9.\nLiver blood flow was then calculated from the plasma clearance value using the previously determined blood hematocrit (Htc) value as follows: [formula]"}, "[2]": {"test": "Biliary excretion after intraduodenal injection (enterohepatic circulation)", "procedure": "In another group of experiments, FITC-GC was injected intraduodenally and bile samples collected for a period of two hours. More than 90% of the injected conjugate was excreted in the bile. […] It is these characteristics of fluoresceintly labelled bile acids which make them valuable as diagnostic agents and research tools."}, "rats": {"tested_on": "rats", "test": "Effects on bile flow, sinusoidal blood flow, blood pressure and heart rate (rats)", "conditions": "compared with equimolar amounts of sodium glycocholate"}, "hamsters": {"tested_on": "hamsters", "test": "Effects on bile flow, sinusoidal blood flow, blood pressure and heart rate (hamsters)", "conditions": "compared with equimolar amounts of sodium glycocholate"}}, "data": [{"smiles": "C[C@H](CCC(=O)NCC(=O)O)[C@H]1CC[C@H]2[C@@H]3[C@H](O)C[C@@H]4C[C@H](OC(=S)Nc5ccc6c(c5)C5(OC6=O)c6ccc(O)cc6Oc6cc(O)ccc65)CC[C@]4(C)[C@H]3C[C@H](O)[C@]12C", "note": "[FITC-GC, fluorescein isothiocyanate-sodium glycocholate]", "values": [{"measurement": "liver blood flow", "setting": "[1]; 15 μmoles FITC-GC injected in 2 ml normal saline, samples at 2-10 minutes, k assumed 0.9, corrected for hematocrit", "result": 194, "unit": "mL/min"}, {"measurement": "concentration values in plasma serial samples (decline)", "setting": "[1]; 15 μmoles injected, 2, 4, 6, 8 and 10 minutes", "result": "monoexponential decline"}, {"measurement": "dose excreted at 2 h", "setting": "[2]; injected intraduodenally, bile collected for two hours, read-out: injected conjugate excreted in the bile", "result": "> 90", "unit": "%"}, {"measurement": "enterohepatic circulation", "setting": "[2]; intraduodenal injection and reinjection of bile", "result": "undergoes an enterohepatic circulation"}, {"measurement": "elimination of the injected conjugate via bile after reinjection of collected bile", "setting": "[2]; reinjection into the duodenum of the bile collected", "result": "almost complete elimination"}, {"measurement": "effect on bile flow", "setting": "rats", "result": "the same effects"}, {"measurement": "effect on blood pressure", "setting": "rats", "result": "the same effects"}, {"measurement": "effect on heart rate", "setting": "rats", "result": "the same effects"}, {"measurement": "effect on sinusoidal blood flow", "setting": "rats", "result": "the same effects"}, {"measurement": "effect on bile flow", "setting": "hamsters", "result": "the same effects"}, {"measurement": "effect on blood pressure", "setting": "hamsters", "result": "the same effects"}, {"measurement": "effect on heart rate", "setting": "hamsters", "result": "the same effects"}, {"measurement": "effect on sinusoidal blood flow", "setting": "hamsters", "result": "the same effects"}]}]}
